Assay results: patent US20140343000A1 (priority 2011, published 2014)

tested on: recombinant NL4-3 virus (Renilla luciferase in nef, Gag P373S; NLRluc) in MT-2 cells; assay: whole plant or invertebrate; assay type: cell-based, HIV; settings: Renilla, NL43, luciferase activity in cells infected for 4-5 days with NLRluc recombinants, serial dilutions of inhibitor; class symbols (key in Table 1); read-out: EC50
Procedure, shortened: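 MT-2 cells in RPMI 1640 with 10% heat-inactivated FBS were infected with the reporter virus, made by transfecting the proviral clone into 293T cells, and cultured 4-5 days with serial inhibitor dilutions. Antiviral activity was quantified from Renilla luciferase activity measured in lysed cells.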

Row | Structure (SMILES) | EC50 [nM]
1 | C=C(C)[C@@H]1CC[C@]2(NC(=O)N3CCN(C4CCN(C)CC4)CC3)CC[C@]3(C)[C@H](CC[C@@H]4[C@@]5(C)CC=C(c6ccc(C(=O)O)cc6)C(C)(C)[C@@H]5CC[C@]43C)[C@@H]12 [Example 40, 4-((1R,3aS,5aR,5bR,7aR,11aS,11bR,13aR,13bR)-5a,5b,8,8,11a-pentamethyl-3a-(4-(1-methylpiperidin-4-yl)piperazine-1-carboxamido)-1-(prop-1-en-2-yl)-2,3,3a,4,5,5a,5b,6,7,7a,8,11,11a,11b,12,13,13a,13b-octadecahydro-1H-cyclopenta[a]chrysen-9-yl)benzoic acid] | < 100
2 | C=C(C)[C@@H]1CC[C@]2(NC(=O)N3CCN(C(C)=O)CC3)CC[C@]3(C)[C@H](CC[C@@H]4[C@@]5(C)CC=C(c6ccc(C(=O)O)cc6)C(C)(C)[C@@H]5CC[C@]43C)[C@@H]12 [Example 41, 4-((1R,3aS,5aR,5bR,7aR,11aS,11bR,13aR,13bR)-3a-(4-acetylpiperazine-1-carboxamido)-5a,5b,8,8,11a-pentamethyl-1-(prop-1-en-2-yl)-2,3,3a,4,5,5a,5b,6,7,7a,8,11,11a,11b,12,13,13a,13b-octadecahydro-1H-cyclopenta[a]chrysen-9-yl)benzoic acid] | < 100
3 | C=C(C)[C@@H]1CC[C@]2(NC(=O)N3CCNC(=O)CC3)CC[C@]3(C)[C@H](CC[C@@H]4[C@@]5(C)CC=C(c6ccc(C(=O)O)cc6)C(C)(C)[C@@H]5CC[C@]43C)[C@@H]12 [Example 42, 4-((1R,3aS,5aR,5bR,7aR,11aS,11bR,13aR,13bR)-5a,5b,8,8,11a-pentamethyl-3a-(5-oxo-1,4-diazepane-1-carboxamido)-1-(prop-1-en-2-yl)-2,3,3a,4,5,5a,5b,6,7,7a,8,11,11a,11b,12,13,13a,13b-octadecahydro-1H-cyclopenta[a]chrysen-9-yl)benzoic acid] | < 100
4 | C=C(C)[C@@H]1CC[C@]2(NC(=O)N(C)CCN3CCCC3)CC[C@]3(C)[C@H](CC[C@@H]4[C@@]5(C)CC=C(c6ccc(C(=O)O)cc6)C(C)(C)[C@@H]5CC[C@]43C)[C@@H]12 [Example 44, 4-((1R,3aS,5aR,5bR,7aR,11aS,11bR,13aR,13bR)-5a,5b,8,8,11a-pentamethyl-3a-(3-methyl-3-(2-(pyrrolidin-1-yl)ethyl)ureido)-1-(prop-1-en-2-yl)-2,3,3a,4,5,5a,5b,6,7,7a,8,11,11a,11b,12,13,13a,13b-octadecahydro-1H-cyclopenta[a]chrysen-9-yl)benzoic acid] | < 100
5 | C=C(C)[C@@H]1CC[C@]2(NC(=O)N3CCNCC3)CC[C@]3(C)[C@H](CC[C@@H]4[C@@]5(C)CC=C(c6ccc(C(=O)O)cc6)C(C)(C)[C@@H]5CC[C@]43C)[C@@H]12 [Example 45, 4-((1R,3aS,5aR,5bR,7aR,11aS,11bR,13aR,13bR)-5a,5b,8,8,11a-pentamethyl-3a-(piperazine-1-carboxamido)-1-(prop-1-en-2-yl)-2,3,3a,4,5,5a,5b,6,7,7a,8,11,11a,11b,12,13,13a,13b-octadecahydro-1H-cyclopenta[a]chrysen-9-yl)benzoic acid] | < 100
6 | C=C(C)[C@@H]1CC[C@]2(NC(=O)N(C)CCCN(C)C)CC[C@]3(C)[C@H](CC[C@@H]4[C@@]5(C)CC=C(c6ccc(C(=O)O)cc6)C(C)(C)[C@@H]5CC[C@]43C)[C@@H]12 [Example 46, 4-((1R,3aS,5aR,5bR,7aR,11aS,11bR,13aR,13bR)-3a-(3-(3-(dimethylamino)propyl)-3-methylureido)-5a,5b,8,8,11a-pentamethyl-1-(prop-1-en-2-yl)-2,3,3a,4,5,5a,5b,6,7,7a,8,11,11a,11b,12,13,13a,13b-octadecahydro-1H-cyclopenta[a]chrysen-9-yl)benzoic acid] | < 100
7 | C=C(C)[C@@H]1CC[C@]2(NC(=O)NCCNS(C)(=O)=O)CC[C@]3(C)[C@H](CC[C@@H]4[C@@]5(C)CC=C(c6ccc(C(=O)O)cc6)C(C)(C)[C@@H]5CC[C@]43C)[C@@H]12 [Example 47, 4-((1R,3aS,5aR,5bR,7aR,11aS,11bR,13aR,13bR)-5a,5b,8,8,11a-pentamethyl-3a-(3-(2-(methylsulfonamido)ethyl)ureido)-1-(prop-1-en-2-yl)-2,3,3a,4,5,5a,5b,6,7,7a,8,11,11a,11b,12,13,13a,13b-octadecahydro-1H-cyclopenta[a]chrysen-9-yl)benzoic acid] | < 100
8 | C=C(C)[C@@H]1CC[C@]2(NC(=O)N(C)CCn3ccc4ccccc43)CC[C@]3(C)[C@H](CC[C@@H]4[C@@]5(C)CC=C(c6ccc(C(=O)O)cc6)C(C)(C)[C@@H]5CC[C@]43C)[C@@H]12 [Example 48, 4-((1R,3aS,5aR,5bR,7aR,11aS,11bR,13aR,13bR)-3a-(3-(2-(1H-indol-1-yl)ethyl)-3-methylureido)-5a,5b,8,8,11a-pentamethyl-1-(prop-1-en-2-yl)-2,3,3a,4,5,5a,5b,6,7,7a,8,11,11a,11b,12,13,13a,13b-octadecahydro-1H-cyclopenta[a]chrysen-9-yl)benzoic acid] | < 100
9 | C=C(C)[C@@H]1CC[C@]2(NC(=O)NCCCN(C)S(C)(=O)=O)CC[C@]3(C)[C@H](CC[C@@H]4[C@@]5(C)CC=C(c6ccc(C(=O)O)cc6)C(C)(C)[C@@H]5CC[C@]43C)[C@@H]12 [Example 49, 4-((1R,3aS,5aR,5bR,7aR,11aS,11bR,13aR,13bR)-5a,5b,8,8,11a-pentamethyl-3a-(3-(3-(N-methylmethylsulfonamido)propyl)ureido)-1-(prop-1-en-2-yl)-2,3,3a,4,5,5a,5b,6,7,7a,8,11,11a,11b,12,13,13a,13b-octadecahydro-1H-cyclopenta[a]chrysen-9-yl)benzoic acid] | < 100
10 | C=C(C)[C@@H]1CC[C@]2(NC(=O)NCCN(C)S(C)(=O)=O)CC[C@]3(C)[C@H](CC[C@@H]4[C@@]5(C)CC=C(c6ccc(C(=O)O)cc6)C(C)(C)[C@@H]5CC[C@]43C)[C@@H]12 [Example 50, 4-((1R,3aS,5aR,5bR,7aR,11aS,11bR,13aR,13bR)-5a,5b,8,8,11a-pentamethyl-3a-(3-(2-(N-methylmethylsulfonamido)ethyl)ureido)-1-(prop-1-en-2-yl)-2,3,3a,4,5,5a,5b,6,7,7a,8,11,11a,11b,12,13,13a,13b-octadecahydro-1H-cyclopenta[a]chrysen-9-yl)benzoic acid] | < 100

same assay, conditions: Renilla, NL43, luciferase activity in cells infected for 4-5 days with NLRluc recombinants, serial dilutions of inhibitor; numeric values; read-out: EC50

Row | Structure (SMILES) | EC50 [nM]
11 | C=C(C)[C@@H]1CC[C@]2(NC(=O)N(CCN)CCC(=O)O)CC[C@]3(C)[C@H](CC[C@@H]4[C@@]5(C)CC=C(c6ccc(C(=O)O)cc6)C(C)(C)[C@@H]5CC[C@]43C)[C@@H]12 [Example 43, 4-((1R,3aS,5aR,5bR,7aR,11aS,11bR,13aR,13bR)-3a-(3-(2-aminoethyl)-3-(2-carboxyethyl)ureido)-5a,5b,8,8,11a-pentamethyl-1-(prop-1-en-2-yl)-2,3,3a,4,5,5a,5b,6,7,7a,8,11,11a,11b,12,13,13a,13b-octadecahydro-1H-cyclopenta[a]chrysen-9-yl)benzoic acid] | 30
